According to the supplement of paper PMC9151546:
Where a name gives a salt, the structure may show the parent alone.

What was measured:
CHO-K1 [1] = experiment: benchmark concentration for 60% increase in hypodiploid frequency (BMC60); higher = less potent aneugen
Description: (§1)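 Benchmark concentration modelling (PROAST, Hill/exponential model families) of the 19-concentration flow-cytometric micronucleus assay in CHO-K1 cells, with and without rat liver S9. Only non-cytotoxic and adequate (relative survival >=40%) concentrations were used. BMR was a 30% increase in %MN (BMC30) or a 60% increase in %hypodiploid (BMC60) over control.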

CHO-K1 [2] = experiment: benchmark concentration for 30% increase in micronucleus frequency (BMC30); higher = less potent clastogen
Description: as §1

[3] = S9 metabolic activation: without S9
[4] = S9 metabolic activation: with S9

Compound	benchmark concentration (CHO-K1 [1]; [3])	benchmark concentration (CHO-K1 [2]; [3])	benchmark concentration (CHO-K1 [1]; [4])	benchmark concentration (CHO-K1 [2]; [4])
NC(=O)NO [Hydroxyurea]	29 µM	19 µM	–	–
CCc1ccc(CCOc2ccc(CC3SC(=O)NC3=O)cc2)nc1 (centres undefined) [Pioglitazone hydrochloride]	7.6 µM	< 4.5 µM	–	–
Nc1ccn([C@@H]2O[C@H](CO)[C@@H](O)[C@@H]2O)c(=O)n1 [Cytarabine hydrochloride]	–	–	27 µM	5.9 µM
O=[N+]([O-])c1ccc(O)c([N+](=O)[O-])c1 [2,4-Dinitrophenol]	49 µM	86 µM	–	–
ClC1(Cl)C2(Cl)C3(Cl)C4(Cl)C(Cl)(Cl)C5(Cl)C3(Cl)C1(Cl)C5(Cl)C24Cl (centres undefined) [Mirex]	28 µM	36 µM	–	–
CC(C)(c1cc(Br)c(O)c(Br)c1)c1cc(Br)c(O)c(Br)c1 [3,3',5,5'-Tetrabromobisphenol A]	37 µM	44 µM	28 µM	–
O=C(c1ccccc1)c1ccccc1 [Benzophenone]	28 µM	59 µM	–	–
Cn1cnc([N+](=O)[O-])c1Sc1ncnc2[nH]cnc12 [Azathioprine]	18 µM	83 µM	170 µM	–
CN(C)c1ccc(N=NS(=O)(=O)O)cc1 [Fenaminosulf]	41 µM	27 µM	–	–
Cc1cc(=O)[nH]c(=S)[nH]1 [6-Methyl-2-thiouracil]	57 µM	< 4.5 µM	83 µM	–
CCCCC=O [Pentanal]	140 µM	–	–	60 µM
ClC(Cl)=C(c1ccc(Cl)cc1)c1ccc(Cl)cc1 [p,p'-DDE]	16 µM	29 µM	–	51 µM
OCc1ccccc1 [Benzyl alcohol]	93 µM	43 µM	–	–
C[C@]12CC[C@@H]3c4ccc(O)cc4CC[C@H]3[C@@H]1CC[C@@H]2O [17beta-Estradiol]	9.9 µM	8.1 µM	–	–
Nc1ccc2c(c1)C(=O)c1ccccc1C2=O [2-Aminoanthraquinone]	29 µM	–	22 µM	8.1 µM
CN(C)c1ccc(Cc2ccc(N(C)C)cc2)cc1 [4,4'-Methylenebis(N,N-dimethylaniline)]	38 µM	–	75 µM	56 µM

Compound	benchmark concentration (CHO-K1 [1]; [3])	benchmark concentration (CHO-K1 [2]; [3])	benchmark concentration (CHO-K1 [1]; [4])	benchmark concentration (CHO-K1 [2]; [4])
Nc1ccc(-c2ccc(N)cc2)cc1 [Benzidine]	18 µM	18 µM	–	–
NC1CCCCC1 [Cyclohexylamine]	43 µM	72 µM	–	–
c1ccc(C2CO2)cc1 (centres undefined) [Styrene oxide]	19 µM	96 µM	–	–
Nc1ccc([N+](=O)[O-])cc1 [4-Nitroaniline]	100 µM	11 µM	–	–
ClC1=C(Cl)C2(Cl)C3C(Cl)C=CC3C1(Cl)C2(Cl)Cl (centres undefined) [Heptachlor]	20 µM	64 µM	19 µM	11 µM
CCOC(=O)c1ccccc1C(=O)OCC [Diethyl phthalate]	99 µM	100 µM	–	–
ClCC(Cl)CCl [1,2,3-Trichloropropane]	72 µM	46 µM	–	–
CCNc1ccccc1 [N-Ethylaniline]	35 µM	77 µM	–	–
Cc1cc(Cc2ccc(N)c(C)c2)ccc1N [4,4'-Methylenebis(2-methylaniline)]	33 µM	37 µM	–	–
c1cc2ccc3cccc4ccc(c1)c2c34 [Pyrene]	110 µM	–	–	40 µM
c1ccc(/N=N/c2ccccc2)cc1 [Azobenzene]	87 µM	–	37 µM	32 µM
O=C(OC[C@H]1O[C@@H](OC(=O)c2cc(O)c(O)c(OC(=O)c3cc(O)c(O)c(O)c3)c2)[C@H](OC(=O)c2cc(O)c(O)c(OC(=O)c3cc(O)c(O)c(O)c3)c2)[C@@H](OC(=O)c2cc(O)c(O)c(OC(=O)c3cc(O)c(O)c(O)c3)c2)[C@@H]1OC(=O)c1cc(O)c(O)c(OC(=O)c2cc(O)c(O)c(O)c2)c1)c1cc(O)c(O)c(OC(=O)c2cc(O)c(O)c(O)c2)c1 [Tannic acid]	0.84 µM	–	1.3 µM	0.9 µM
OCCCBr [3-Bromo-1-propanol]	73 µM	110 µM	–	–
CN(C)c1ccc(C(=O)c2ccc(N(C)C)cc2)cc1 [Michlers ketone]	–	–	22 µM	27 µM
O=C1CCCCCN1 [Caprolactam]	150 µM	44 µM	–	–
CN(C)C(=O)Nc1ccc(Cl)cc1 [Monuron]	82 µM	8.6 µM	–	–
